ChEMBL document CHEMBL1201862, “PubChem BioAssay data set” (2004)
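96-well plates; 48 h exposure; 5 concentrations. Endpoints by linear interpolation between flanking doses. Not reached: highest tested concentration assigned. GI50 marks 50% less growth.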 Calls of active or inactive are those of the source. Rule as the data show it: active = GI50 up to about 1.1 µM and inactive = higher.

Tests used:
Experiment in all cases: DTP human tumour cell line panel, 48 h
[1] = test system: SK-MEL-2
[2] = test system: OVCAR-3
[3] = test system: OVCAR-5
[4] = test system: COLO 205
[5] = test system: K562
[6] = test system: Malme-3M
[7] = test system: HL-60
[8] = test system: SNB-75
[9] = test system: HCT-15
[10] = test system: HCC 2998
[11] = test system: NCI-H226
[12] = test system: HCT-116
[13] = test system: HOP-92
[14] = test system: SF-268
[15] = test system: NCI-H522
[16] = test system: RPMI-8226

Row | Structure (SMILES) | GI50 [1] | GI50 [2] | GI50 [3] | GI50 [4] | GI50 [5] | GI50 [6] | GI50 [7] | GI50 [8] | GI50 [9] | GI50 [10] | GI50 [11] | GI50 [12] | GI50 [13] | GI50 [14] | GI50 [15] | GI50 [16]
1 | CN(C)CCNC(=O)c1cccc2ncc(-c3ccccc3)nc12 | 14.6 µM (inactive) | 19.5 µM (inactive) | 9.04 µM (inactive) | 4.11 µM (inactive) | 9.02 µM (inactive) | 13 µM (inactive) | 14.4 µM (inactive) | 17.5 µM (inactive) | 5.37 µM | 9.59 µM (inactive) | 7.91 µM (inactive) | 4.26 µM (inactive) | 18.7 µM (inactive) | 10.6 µM (inactive) | 5.78 µM (inactive) | –
2 | OC(c1cc2ccccc2[nH]1)C(O)(c1cc2ccccc2[nH]1)c1cc2ccccc2[nH]1 (stereo unspecified) | 17.9 µM (inactive) | 4.28 µM (inactive) | 57.8 µM (inactive) | 4.44 µM (inactive) | 10.9 µM (inactive) | 28.4 µM (inactive) | 7.91 µM (inactive) | – | 10 µM | 8.09 µM (inactive) | 11.8 µM (inactive) | 6.92 µM (inactive) | 14.9 µM (inactive) | 15.6 µM (inactive) | 8.61 µM (inactive) | 7.11 µM (inactive)
3 | O=C1c2cccc3c(Cl)ccc(c23)C(=O)N1CCCN1CCN(CCCN2C(=O)c3cccc4c(Cl)ccc(c34)C2=O)CC1 | > 100 µM (inactive) | > 100 µM (inactive) | > 100 µM (inactive) | > 100 µM (inactive) | 86.1 µM (inactive) | > 100 µM (inactive) | > 100 µM (inactive) | 40.2 µM (inactive) | > 100 µM | 53.3 µM (inactive) | > 100 µM (inactive) | 66.7 µM (inactive) | > 100 µM (inactive) | – | – | > 100 µM (inactive)
4 | N=C(N)SCc1cn2ccccc2n1 | > 100 µM (inactive) | > 100 µM (inactive) | > 100 µM (inactive) | > 100 µM (inactive) | > 100 µM (inactive) | > 100 µM (inactive) | > 100 µM (inactive) | > 100 µM (inactive) | > 100 µM | > 100 µM (inactive) | > 100 µM (inactive) | > 100 µM (inactive) | – | > 100 µM (inactive) | > 100 µM (inactive) | > 100 µM (inactive)
5 | Cc1ccc(SCC(=O)C2=C(O)CCCC2=O)cc1 | > 100 µM (inactive) | > 100 µM (inactive) | > 100 µM (inactive) | > 100 µM (inactive) | > 100 µM (inactive) | > 100 µM (inactive) | > 100 µM (inactive) | > 100 µM (inactive) | > 100 µM | – | > 100 µM (inactive) | > 100 µM (inactive) | > 100 µM (inactive) | > 100 µM (inactive) | > 100 µM (inactive) | > 100 µM (inactive)
6 | O=C(CCn1[nH]c(=O)c(Cl)c(Cl)c1=O)NOCCCc1ccccc1 | > 100 µM (inactive) | > 100 µM (inactive) | > 100 µM (inactive) | – | > 100 µM (inactive) | > 100 µM (inactive) | > 100 µM (inactive) | > 100 µM (inactive) | > 100 µM | > 100 µM (inactive) | > 100 µM (inactive) | > 100 µM (inactive) | > 100 µM (inactive) | > 100 µM (inactive) | – | > 100 µM (inactive)
7 | Cc1cccc(C(C)(C)C)c1NC(=O)C(=O)C(c1cnc2ccccc2n1)[N+](=O)[O-] (stereo unspecified) | > 100 µM (inactive) | – | > 100 µM (inactive) | > 100 µM (inactive) | > 100 µM (inactive) | > 100 µM (inactive) | 65.3 µM (inactive) | > 100 µM (inactive) | > 100 µM | > 100 µM (inactive) | > 100 µM (inactive) | > 100 µM (inactive) | > 100 µM (inactive) | > 100 µM (inactive) | 38.5 µM (inactive) | 60.3 µM (inactive)
8 | CC1=N/C(=C\c2ccc(N)cc2)C(=O)N1Nc1nnc(NN2C(=O)/C(=C/c3ccc(N)cc3)N=C2C)c2ccccc12 | – | – | > 100 µM (inactive) | 83.6 µM (inactive) | 27.4 µM (inactive) | – | 22.1 µM (inactive) | 5.05 µM (inactive) | 82.2 µM | – | 14.3 µM (inactive) | > 100 µM (inactive) | > 100 µM (inactive) | 55 µM (inactive) | 21.3 µM (inactive) | 26.4 µM (inactive)
9 | CCOP1(=O)C=C(C)C(Cl)=C(C)C1 (stereo unspecified) | 8.91 µM (inactive) | 37.3 µM (inactive) | 43.9 µM (inactive) | 12 µM (inactive) | 23.4 µM (inactive) | – | 19.1 µM (inactive) | 15.4 µM (inactive) | 23.3 µM | 80.2 µM (inactive) | 21.4 µM (inactive) | 17.2 µM (inactive) | 19.6 µM (inactive) | 38.9 µM (inactive) | 13.9 µM (inactive) | 18.9 µM (inactive)
10 | CN(/N=C/c1cccc2cccnc12)c1c([N+](=O)[O-])cc([N+](=O)[O-])cc1[N+](=O)[O-] | > 100 µM (inactive) | > 100 µM (inactive) | > 100 µM (inactive) | > 100 µM (inactive) | 3.56 µM (inactive) | > 100 µM (inactive) | 5.82 µM (inactive) | > 100 µM (inactive) | 13.2 µM | > 100 µM (inactive) | > 100 µM (inactive) | > 100 µM (inactive) | > 100 µM (inactive) | > 100 µM (inactive) | – | > 100 µM (inactive)
11 | CC1C2CC=CC(=O)[C@@]2(C)CCC12OCCO2 (stereo partly specified) | > 100 µM (inactive) | > 100 µM (inactive) | > 100 µM (inactive) | – | > 100 µM (inactive) | 17.5 µM (inactive) | > 10 µM (inactive) | 97.3 µM (inactive) | – | > 100 µM (inactive) | > 100 µM (inactive) | > 100 µM (inactive) | > 100 µM (inactive) | > 100 µM (inactive) | > 100 µM (inactive) | –
12 | C/C(CCn1[nH]c(=O)ccc1=O)=N\Nc1ccc([N+](=O)[O-])cc1[N+](=O)[O-] | > 100 µM (inactive) | > 100 µM (inactive) | > 100 µM (inactive) | – | 20.6 µM (inactive) | > 100 µM (inactive) | > 100 µM (inactive) | > 100 µM (inactive) | 23.6 µM | > 100 µM (inactive) | > 100 µM (inactive) | > 100 µM (inactive) | > 100 µM (inactive) | > 100 µM (inactive) | – | > 100 µM (inactive)
13 | COc1cc2cc(OC(C)=O)c3cc4c(cc3c2c(OC)c1OC)OCO4 | > 100 µM (inactive) | > 100 µM (inactive) | > 100 µM (inactive) | > 100 µM (inactive) | > 100 µM (inactive) | > 100 µM (inactive) | > 100 µM (inactive) | > 100 µM (inactive) | > 100 µM | > 100 µM (inactive) | > 100 µM (inactive) | > 100 µM (inactive) | – | > 100 µM (inactive) | > 100 µM (inactive) | –
14 | CCC(=O)N1C(=S)SC[C@H]1C(=O)OC | – | > 100 µM (inactive) | > 100 µM (inactive) | > 100 µM (inactive) | > 100 µM (inactive) | > 100 µM (inactive) | > 100 µM (inactive) | > 100 µM (inactive) | – | > 100 µM (inactive) | > 100 µM (inactive) | > 100 µM (inactive) | > 100 µM (inactive) | > 100 µM (inactive) | > 100 µM (inactive) | –
15 | COc1ccc2cc1Oc1ccc(cc1)CC1c3cc(c(OC)cc3CCN1C)Oc1c3c(cc4c1C(C2)N(C)CC4)OCO3 (stereo unspecified) | 5.2 µM (inactive) | 15.7 µM (inactive) | 18.2 µM (inactive) | 3.89 µM (inactive) | 1.85 µM (inactive) | – | 1.92 µM (inactive) | 3.74 µM (inactive) | 4.42 µM | 11.5 µM (inactive) | 2.35 µM (inactive) | 12.8 µM (inactive) | – | 8.36 µM (inactive) | 7.16 µM (inactive) | –
16 | O=C1/C(=C/c2ccc(Br)cc2)CCC/C1=C\c1ccc(Br)cc1 | 20.9 µM (inactive) | 4.08 µM (inactive) | – | 12.7 µM (inactive) | 4.31 µM (inactive) | 19.6 µM (inactive) | 3.18 µM (inactive) | 20.6 µM (inactive) | 5.13 µM | 2.31 µM (inactive) | – | 1.73 µM (inactive) | – | 17.2 µM (inactive) | 13.6 µM (inactive) | 2.04 µM (inactive)
17 | CCC1(c2ccncc2)CCC(=O)NC1=O (stereo unspecified) [ROGLETIMIDE] | > 100 µM (inactive) | > 100 µM (inactive) | > 100 µM (inactive) | > 100 µM (inactive) | > 100 µM (inactive) | > 100 µM (inactive) | > 100 µM (inactive) | > 100 µM (inactive) | > 100 µM | > 100 µM (inactive) | > 100 µM (inactive) | > 100 µM (inactive) | 52.4 µM (inactive) | > 100 µM (inactive) | – | > 100 µM (inactive)
18 | COC(=O)C1C(=O)CC2CCCCC21 (stereo unspecified) | > 100 µM (inactive) | > 100 µM (inactive) | – | > 100 µM (inactive) | > 100 µM (inactive) | > 100 µM (inactive) | > 100 µM (inactive) | > 100 µM (inactive) | > 100 µM | > 100 µM (inactive) | > 100 µM (inactive) | > 100 µM (inactive) | – | > 100 µM (inactive) | > 100 µM (inactive) | > 100 µM (inactive)
19 | CC1(C=O)C(=O)CCC2(C)C3CC(=O)OC3CCC12 (stereo unspecified) | > 100 µM (inactive) | > 100 µM (inactive) | > 100 µM (inactive) | > 100 µM (inactive) | > 100 µM (inactive) | > 100 µM (inactive) | > 100 µM (inactive) | > 100 µM (inactive) | > 100 µM | > 100 µM (inactive) | – | – | > 100 µM (inactive) | > 100 µM (inactive) | > 100 µM (inactive) | > 100 µM (inactive)
20 | O=C1C=CC(CC(=O)c2ccc3ccccc3c2)O1 (stereo unspecified) | 23.8 µM (inactive) | 25.2 µM (inactive) | 25.4 µM (inactive) | 18 µM (inactive) | 32.9 µM (inactive) | 34.3 µM (inactive) | 17.1 µM (inactive) | 37.8 µM (inactive) | 20.5 µM | 17.2 µM (inactive) | – | 17.9 µM (inactive) | 28 µM (inactive) | 17.6 µM (inactive) | – | –
